{"source": "ChEMBL document CHEMBL1201862", "about": "“PubChem BioAssay data set” (2004)", "key": {"[1]": {"target": "T1, Short transient receptor potential channel 4 (Mus musculus, UniProt Q9QUQ5)", "T1 sequence (Q9QUQ5 whole entry)": "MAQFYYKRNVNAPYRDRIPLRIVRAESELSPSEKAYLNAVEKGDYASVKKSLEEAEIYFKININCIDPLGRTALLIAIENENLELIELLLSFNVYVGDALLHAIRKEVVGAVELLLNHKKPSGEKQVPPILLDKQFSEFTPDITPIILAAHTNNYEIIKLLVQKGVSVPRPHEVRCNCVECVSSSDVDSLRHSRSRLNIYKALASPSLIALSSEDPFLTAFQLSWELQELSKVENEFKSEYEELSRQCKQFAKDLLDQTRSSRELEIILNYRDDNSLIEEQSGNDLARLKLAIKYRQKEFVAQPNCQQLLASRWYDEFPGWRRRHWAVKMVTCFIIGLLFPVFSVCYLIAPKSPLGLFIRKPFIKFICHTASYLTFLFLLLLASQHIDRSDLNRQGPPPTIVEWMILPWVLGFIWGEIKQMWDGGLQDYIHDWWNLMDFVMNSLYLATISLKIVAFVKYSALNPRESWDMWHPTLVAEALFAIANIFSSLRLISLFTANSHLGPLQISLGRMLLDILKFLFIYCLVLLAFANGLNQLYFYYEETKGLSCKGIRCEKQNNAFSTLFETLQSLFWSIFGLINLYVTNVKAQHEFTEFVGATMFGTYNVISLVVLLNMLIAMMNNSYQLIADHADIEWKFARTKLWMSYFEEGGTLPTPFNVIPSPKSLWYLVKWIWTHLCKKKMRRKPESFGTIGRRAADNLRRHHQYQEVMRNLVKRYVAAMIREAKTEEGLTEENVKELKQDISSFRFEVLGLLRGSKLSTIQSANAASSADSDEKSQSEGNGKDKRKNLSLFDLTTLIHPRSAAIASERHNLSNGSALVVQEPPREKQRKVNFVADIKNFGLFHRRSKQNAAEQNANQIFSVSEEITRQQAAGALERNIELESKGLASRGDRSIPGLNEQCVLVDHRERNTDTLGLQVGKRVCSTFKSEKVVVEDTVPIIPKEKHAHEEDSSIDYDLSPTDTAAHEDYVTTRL", "assay": "mouse TRPC4 channel inhibitors, dose response, cell-based, HEK293 TRPC4/mu-opioid, Fluo-4 calcium (AID 434942)", "format": "functional"}, "H9c2": {"test_system": "H9c2", "assay": "cells", "format": "functional, cell-based", "settings": "Rattus norvegicus, H9c2, Myocardium"}, "Melanocortin receptor 4": {"target": "Melanocortin receptor 4 (Homo sapiens, UniProt P32245)", "sequence (P32245 whole entry)": "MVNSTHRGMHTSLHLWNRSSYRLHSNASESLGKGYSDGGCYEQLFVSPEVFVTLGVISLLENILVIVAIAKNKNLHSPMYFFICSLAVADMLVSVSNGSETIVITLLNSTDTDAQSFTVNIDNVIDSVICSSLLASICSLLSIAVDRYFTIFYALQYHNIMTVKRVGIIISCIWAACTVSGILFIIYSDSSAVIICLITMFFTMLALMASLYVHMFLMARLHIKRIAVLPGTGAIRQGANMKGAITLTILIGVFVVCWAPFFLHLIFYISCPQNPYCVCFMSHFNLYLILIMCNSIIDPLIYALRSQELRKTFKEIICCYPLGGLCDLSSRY", "assay": "MC4R antagonist potency on cAMP, dose response, cell-based, TR-FRET, biased antagonists (AID 602298);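 also: antagonist potency against agonist-stimulated cAMP production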", "format": "functional"}, "[2]": {"assay": "nonselective inhibitors of cellular cAMP signaling, dose response, counter-screen for MC4R biased antagonist project, cell-based, TR-FRET cAMP detection (AID 602305);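 also: U2OS cells stimulated with forskolin near its EC80 as the cAMP inducer; potency is for inhibition of forskolin-stimulated cAMP signaling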", "format": "functional"}, "Cytochrome P450 2C9": {"target": "Cytochrome P450 2C9 (Homo sapiens, UniProt P11712)", "sequence (P11712 whole entry)": "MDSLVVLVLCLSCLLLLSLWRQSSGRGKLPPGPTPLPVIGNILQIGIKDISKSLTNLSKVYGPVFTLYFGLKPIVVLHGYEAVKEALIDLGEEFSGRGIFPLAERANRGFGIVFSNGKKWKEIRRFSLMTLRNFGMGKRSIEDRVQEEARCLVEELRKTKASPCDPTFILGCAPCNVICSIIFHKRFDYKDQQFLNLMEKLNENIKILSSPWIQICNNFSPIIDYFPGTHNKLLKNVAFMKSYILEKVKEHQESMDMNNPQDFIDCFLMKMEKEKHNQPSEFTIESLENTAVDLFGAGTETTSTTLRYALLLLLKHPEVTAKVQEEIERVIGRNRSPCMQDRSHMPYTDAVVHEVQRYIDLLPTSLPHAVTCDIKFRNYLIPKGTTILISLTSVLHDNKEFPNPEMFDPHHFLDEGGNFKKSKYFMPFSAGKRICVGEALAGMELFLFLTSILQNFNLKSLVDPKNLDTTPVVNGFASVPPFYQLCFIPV"}, "[3]": {"target": "T2, Corticotropin-releasing factor receptor 2/Corticotropin-releasing factor-binding protein (Homo sapiens, UniProt P24387+Q13324)", "T2 sequence (Q13324 whole entry)": "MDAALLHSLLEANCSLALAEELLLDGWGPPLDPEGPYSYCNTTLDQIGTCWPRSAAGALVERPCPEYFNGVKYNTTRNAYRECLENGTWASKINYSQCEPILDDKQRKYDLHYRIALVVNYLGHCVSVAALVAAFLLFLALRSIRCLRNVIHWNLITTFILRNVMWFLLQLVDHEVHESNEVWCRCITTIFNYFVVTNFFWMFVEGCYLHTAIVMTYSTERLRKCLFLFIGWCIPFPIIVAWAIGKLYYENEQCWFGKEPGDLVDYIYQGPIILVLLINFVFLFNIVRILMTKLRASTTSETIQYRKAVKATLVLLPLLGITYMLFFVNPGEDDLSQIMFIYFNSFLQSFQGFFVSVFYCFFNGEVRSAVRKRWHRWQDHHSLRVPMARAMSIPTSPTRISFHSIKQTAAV", "T2 sequence (P24387 whole entry)": "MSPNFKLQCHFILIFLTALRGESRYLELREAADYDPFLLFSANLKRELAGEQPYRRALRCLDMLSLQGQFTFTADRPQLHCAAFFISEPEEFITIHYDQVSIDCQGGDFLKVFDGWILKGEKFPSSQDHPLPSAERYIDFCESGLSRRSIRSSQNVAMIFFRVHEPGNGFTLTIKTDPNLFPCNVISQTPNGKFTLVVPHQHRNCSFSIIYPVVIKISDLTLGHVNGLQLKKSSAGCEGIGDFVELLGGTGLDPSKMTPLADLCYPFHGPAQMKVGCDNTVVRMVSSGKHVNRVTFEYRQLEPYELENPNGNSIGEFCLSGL", "assay": "activators of CRF receptor 2 with binding protein – uHTS hits, confirmation (AID 602473)", "format": "functional", "settings": "read-out: EC50_Mean"}, "[4]": {"target": "T1, Short transient receptor potential channel 4", "assay": "mouse TRPC4 channel activators, dose response, cell-based, HEK293 TRPC4/mu-opioid, Fluo-4 calcium (AID 434937)", "format": "functional"}, "[5]": {"target": "T2, Corticotropin-releasing factor receptor 2/Corticotropin-releasing factor-binding protein", "assay": "Dose Response confirmation of uHTS hits for small molecule antagonists of the CRF-binding protein and CRF-R2 receptor complex.", "format": "functional", "settings": "read-out: IC50_Mean"}, "[6]": {"assay": "intracellular Trypanosoma cruzi inhibitors in host cells – cell-based, plate reader, cherry-pick samples, set 3, dose response (AID 651818);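 also: compounds incubated with infected cells for about four days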", "format": "functional"}, "[7]": {"assay": "growth suppression of beta-catenin-knockout colon cells, dose response, cell-based, HCT116, human colon tumor (AID 1045);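 also: cells exposed to compound for 60 hours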", "format": "functional"}, "[8]": {"assay": "growth suppression of PTEN-null colon cells, dose response, cell-based, HCT116 PTEN knockout (AID 1047);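 also: cells exposed to compound for 60 hours before readout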", "format": "functional"}, "[9]": {"assay": "cytotoxicity toward NIH3T3 fibroblasts, dose response, counter-screen, cell-based, ATP luminescence, mouse fibroblasts (AID 2010);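 also: cells exposed to compound for about 90 hours before reading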", "format": "functional"}, "Cytochrome P450 2D6": {"target": "Cytochrome P450 2D6 (Homo sapiens, UniProt P10635)", "sequence (P10635 whole entry)": "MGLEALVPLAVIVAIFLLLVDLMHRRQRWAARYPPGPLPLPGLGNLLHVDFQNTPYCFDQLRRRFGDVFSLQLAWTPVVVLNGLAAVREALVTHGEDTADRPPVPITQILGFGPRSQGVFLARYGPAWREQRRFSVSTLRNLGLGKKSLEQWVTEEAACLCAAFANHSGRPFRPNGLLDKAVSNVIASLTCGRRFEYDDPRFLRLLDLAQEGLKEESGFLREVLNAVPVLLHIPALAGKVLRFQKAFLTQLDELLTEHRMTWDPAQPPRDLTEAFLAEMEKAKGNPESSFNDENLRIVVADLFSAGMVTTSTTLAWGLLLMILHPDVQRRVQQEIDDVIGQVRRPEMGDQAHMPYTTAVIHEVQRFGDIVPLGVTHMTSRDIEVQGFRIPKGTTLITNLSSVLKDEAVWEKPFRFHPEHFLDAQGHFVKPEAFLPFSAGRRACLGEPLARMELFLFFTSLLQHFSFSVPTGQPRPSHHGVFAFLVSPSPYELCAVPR"}, "Streptococcus": {"test_system": "Streptococcus", "assay": "Group A Streptococcus viability loss, dose response, counter-screen for streptokinase expression inhibitor project, luminescence, BacTiterGlo (AID 1915);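 also: potency for reduction of bacterial viability or growth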", "format": "functional, organism-based", "settings": "read-out: EC50"}, "[10]": {"assay": "HepG2 cell cytotoxicity, dose response, cytotoxicity control for Shn3 inhibitor project, CellTiter-Glo, cherry-picked (AID 624134)", "format": "functional, cell-based"}, "Streptokinase A": {"target": "T3, Streptokinase A (Streptococcus pyogenes serotype M1, UniProt P10520)", "T3 sequence (P10520 whole entry)": "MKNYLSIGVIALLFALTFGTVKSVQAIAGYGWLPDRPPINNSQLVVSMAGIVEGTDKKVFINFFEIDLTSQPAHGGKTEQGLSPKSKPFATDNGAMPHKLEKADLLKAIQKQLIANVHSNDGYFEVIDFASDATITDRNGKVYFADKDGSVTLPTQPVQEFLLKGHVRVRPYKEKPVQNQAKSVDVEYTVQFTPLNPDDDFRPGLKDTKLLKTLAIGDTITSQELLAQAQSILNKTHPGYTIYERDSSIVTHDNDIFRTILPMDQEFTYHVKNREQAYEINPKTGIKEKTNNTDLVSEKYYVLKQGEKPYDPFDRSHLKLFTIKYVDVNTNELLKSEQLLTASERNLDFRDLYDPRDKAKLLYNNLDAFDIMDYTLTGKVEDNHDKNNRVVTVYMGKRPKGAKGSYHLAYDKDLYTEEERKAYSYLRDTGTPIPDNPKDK", "assay": "S. pyogenes streptokinase expression inhibitors, potency, dose response, plasminogen activation absorbance, OD405 (AID 1914);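 also: secreted streptokinase activity via plasminogen activation per viability signal from cell pellet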", "format": "functional, Streptococcus pyogenes M1 GAS"}, "[11]": {"assay": "inhibitors of intracellular T. cruzi replication, confirmation, NIH3T3 host cells, beta-gal luminescence (AID 2044);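 also: luminescent beta-galactosidase reporter signal from transgenic T. cruzi replicating inside host cells; inhibitors lower the luminescence signal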", "format": "functional, cell-based"}, "[12]": {"assay": "Shn3 3'UTR reporter inhibitors, dose response, cell-based, Clone20 osteoblasts, firefly luciferase, cherry-picked (AID 624132)", "format": "functional"}, "[13]": {"assay": "Luminescence Cell-Based Dose Retest to Confirm Inhibitors of Cancer Stem Cells. [Related pubchem assays (depositor defined):AID2717, AID2721]", "format": "functional", "settings": "Homo sapiens"}, "Paired box protein Pax-8": {"target": "Paired box protein Pax-8 (Homo sapiens, UniProt Q06710)", "sequence (Q06710 whole entry)": "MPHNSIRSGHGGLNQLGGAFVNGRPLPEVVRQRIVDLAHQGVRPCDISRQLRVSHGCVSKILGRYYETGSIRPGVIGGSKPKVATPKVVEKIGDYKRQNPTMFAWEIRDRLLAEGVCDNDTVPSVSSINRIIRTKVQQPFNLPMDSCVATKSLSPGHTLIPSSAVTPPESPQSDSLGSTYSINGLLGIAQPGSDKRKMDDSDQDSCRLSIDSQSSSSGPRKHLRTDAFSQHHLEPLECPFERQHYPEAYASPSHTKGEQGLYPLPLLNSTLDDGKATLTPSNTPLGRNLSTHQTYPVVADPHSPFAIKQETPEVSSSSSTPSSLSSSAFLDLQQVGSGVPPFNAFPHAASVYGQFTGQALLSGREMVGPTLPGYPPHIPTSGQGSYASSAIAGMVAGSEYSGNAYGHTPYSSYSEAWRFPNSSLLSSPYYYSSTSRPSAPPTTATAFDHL", "assay": "inhibitors of PAX8-driven TPO luciferase reporter, dose response, RMG-I cells, cherry-pick (AID 687027);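 also: luciferase reporter driven by Pax8 target thyroperoxidase promoter measured by SteadyGlo luminescence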", "format": "functional, cell-based"}, "[14]": {"test_system": "Streptococcus sp. 'group A'", "assay": "growth inhibition of control SK(-) GAS strain, dose response, counter-screen for streptokinase expression inhibitor project, luminescence, kanamycin, BacTiterGlo, confirmation (AID 1900)", "format": "functional, organism-based"}}, "note": "Active and inactive are the calls of the source.", "data": [{"compound": "CC(=O)C1=C(O)C(=O)N(Cc2ccccc2)C1c1ccc([N+](=O)[O-])cc1", "note": "(stereo unspecified)", "values": [{"measurement": "EC50", "setting": "[1]", "result": "1.19 µM (active)"}]}, {"compound": "CC(=O)Nc1ccc(S(=O)(=O)Nc2nc3ccc(C)cc3s2)cc1", "values": [{"measurement": "EC50", "setting": "[1]", "result": "3.76 µM (active)"}]}, {"compound": "O=C(NCC(=O)N(Cc1ccccc1)C(C(=O)NC1CCCCC1)c1ccco1)c1ccco1", "note": "(stereo unspecified)", "values": [{"measurement": "IC50", "setting": "H9c2", "result": "42.2 µM (inactive)"}]}, {"compound": "COC(=O)c1c(NC(=O)COC(=O)c2ccc(Cl)cc2[N+](=O)[O-])sc2c1CCCCC2", "values": [{"measurement": "IC50", "setting": "Melanocortin receptor 4", "result": "> 64.6 µM (inactive)"}, {"measurement": "IC50", "setting": "[2]", "result": "> 64.6 µM (inactive)"}]}, {"compound": "CCn1c(-c2ccccc2Cl)nn(CC(=O)Nc2ccccc2OC)c1=S", "values": [{"measurement": "AC50", "setting": "Cytochrome P450 2C9", "result": "inconclusive"}]}, {"compound": "O=C(NCc1ccccc1)C1=C[C@H](c2ccccc2)C[C@H](OCc2ccc(CO)cc2)O1", "values": [{"measurement": "EC50", "setting": "[3]", "result": "> 53 µM (inactive)"}, {"measurement": "EC50", "setting": "[4]", "result": "1.06 µM (active)"}, {"measurement": "IC50", "setting": "[5]", "result": "> 47.1 µM (inactive)"}]}, {"compound": "COc1ccc2sc(-c3ccc(S(C)(=O)=O)cc3)c(-c3ccc(C(N)=O)cc3)c2c1", "values": [{"measurement": "IC50", "setting": "Melanocortin receptor 4", "result": "11.5 µM (inactive)"}, {"measurement": "IC50", "setting": "[2]", "result": "25.1 µM (inactive)"}]}, {"compound": "Cc1nnsc1SCC(=O)O", "values": [{"measurement": "AC50", "setting": "Cytochrome P450 2C9", "result": "inconclusive"}]}, {"compound": "NC(=O)c1cccc(Nc2nc(C(N)CCc3ccccc3)cs2)n1", "note": "(stereo unspecified)", "values": [{"measurement": "IC50", "setting": "H9c2", "result": "18.3 µM (active)"}]}, {"compound": "C[C@@H]1CN([C@@H](C)CO)C(=O)c2cccc(NC(=O)Nc3ccc(C(F)(F)F)cc3)c2O[C@@H]1CN(C)Cc1ccc(C(F)(F)F)cc1", "values": [{"measurement": "AC50", "setting": "[6]", "result": "3.89 µM (active)"}]}, {"compound": "Cc1noc(C)c1S(=O)(=O)Nc1ccc2c(c1)CC(=O)N([C@@H](C)CO)C[C@H](C)[C@@H](CN(C)Cc1ccc(-c3ccccc3)cc1)O2", "values": [{"measurement": "AC50", "setting": "[6]", "result": "4.33 µM (active)"}]}, {"compound": "COc1ccc(S(=O)(=O)Nc2ccc3c(c2)CC(=O)N([C@@H](C)CO)C[C@@H](C)[C@@H](CN(C)Cc2ccc(C(=O)Nc4ccccc4N)cc2)O3)cc1", "values": [{"measurement": "AC50", "setting": "[6]", "result": "1.62 µM (active)"}]}, {"compound": "Cc1ccc(S(=O)(=O)Nc2cccc3c2O[C@@H](CN(C)Cc2ccc(-c4ccccc4)cc2)[C@@H](C)CN([C@@H](C)CO)C3=O)cc1", "values": [{"measurement": "AC50", "setting": "[6]", "result": "3.36 µM (active)"}]}, {"compound": "Oc1ccc(/N=C/C=C/c2ccc(Br)cc2)cc1-c1nc2ccccc2s1", "values": [{"measurement": "EC50", "setting": "[7]", "result": "22.4 µM (active)"}, {"measurement": "EC50", "setting": "[8]", "result": "28.8 µM (active)"}]}, {"compound": "Cc1cc(O)c(C(C)C)cc1C1(c2cc(C(C)C)c(O)cc2C)OC(=O)c2ccccc21", "values": [{"measurement": "IC50", "setting": "Melanocortin receptor 4", "result": "> 64.6 µM (inactive)"}, {"measurement": "EC50", "setting": "[9]", "result": "> 60 µM (not active)"}, {"measurement": "AC50", "setting": "Cytochrome P450 2D6", "result": "3.98 µM (inconclusive)"}, {"measurement": "EC50", "setting": "Streptococcus", "result": "3.87 µM (active)"}, {"measurement": "AC50", "setting": "[10]", "result": "18.8 µM (active)"}, {"measurement": "EC50", "setting": "Streptokinase A", "result": "> 150 µM (not active)"}, {"measurement": "EC50", "setting": "[11]", "result": "2.11 µM (active)"}, {"measurement": "AC50", "setting": "[12]", "result": "9.45 µM (active)"}, {"measurement": "IC50", "setting": "[2]", "result": "> 64.6 µM (inactive)"}, {"measurement": "AC50", "setting": "[13]", "result": "1.71 µM (active)"}, {"measurement": "AC50", "setting": "Paired box protein Pax-8", "result": "8.19 µM (active)"}, {"measurement": "EC50", "setting": "[14]", "result": "1.24 µM (active)"}]}]}
